According to patent publication US20260234129A1, “NOVEL IMIDAZOLE DERIVATIVE AND USE THEREOF” (PELEMED CO., LTD., priority 2023, published 2026):

Legend:
[1] = system: MV4-11 cells (FLT3-ITD-expressing AML cell line); assay: Cell proliferation inhibition, Alamar Blue; type: cell-based, human; settings: Homo sapiens, MV4-11, 72 hours of compound treatment, read-out: Cellular (GI50) MV4-11
Description: (§1) The cell proliferation inhibition experiment on acute myeloid leukemia (AML) cell lines was performed using FL3-ITD-expressing AML cell line MV4-11, BaF3-ITD-FLT3 F691L cell line, and BaF3-ITD-FLT3 D835Y cell line to test FLT3 inhibitory activity. All cell lines were human-derived cell lines, and the sources and culture conditions for each cell line are as follows.
(§2) Cell viability was assessed by a resazurin redox-based assay using the Alamar Blue Assay kit (Invitrogen, USA). Specifically, MV4-11, BaF3-ITD-FLT3-F691L, and BaF3-ITD-FLT3-D835Y cells were plated in 384-well plates at 8,000 cells in 45 μL of medium. As a negative control, dimethyl sulfoxide (DMSO) was added together with the compound. After three days (72 hours) of compound treatment, 5 μL of the Alamar Blue kit reagent was added to each well of the 384-well plates, followed by incubation at 37° C. for 2 hours in a humidified CO2 incubator. After incubation, fluorescence intensity (Flu) was measured at 544 nm and 590 nm using a SpectraMax iD3 Multi Mode Microplate Reader (Molecular Devices, ID3-STD).

FLT3(D835Y) = biological target: T1, FLT3(D835Y) (Homo sapiens, UniProt P36888, D835Y); assay: ADP-Glo kinase assay FLT3 D835Y; type: biochemical; settings: recombinant FLT3(D835Y), 120 minutes at room temperature, read-out: Enzyme (IC50) FLT3 D835Y
T1 construct: Recombinant proteins containing FLT3 and FLT3(D835Y) domains were purchased from Promega; purchased Promega V4514
Description: (§3) FLT3 activity inhibition was measured using the ADP-Glo kinase assay method (Promega, cat #V9101). The ADP-Glo kinase assay method is a luminescent ADP detection assay method that provides a homogeneous, high-throughput screening method for measuring kinase activity by quantifying the amount of ADP produced during the kinase reaction.
(§4) The assay was performed in two steps. First, after the kinase reaction, an equal volume of ADP-Glo™ reagent was added to terminate the kinase reaction and deplete any remaining ATP. Second, a kinase detection reagent was added to convert ADP to ATP, and simultaneously the newly synthesized ATP was measured via the luciferase/luciferin reaction. The light produced was measured using a luminometer.
Recombinant proteins containing FLT3 and FLT3(D835Y) domains were purchased from Promega (cat #V4064, cat #V4514), respectively. According to the manufacturer's instructions, the optimal enzyme, ATP, and substrate concentrations were optimized using the ADP-Glo™ kinase assay method (Promega, USA). […] Finally, the detection reagent (kinase detection reagent, 10 μl) was added, followed by reaction at room temperature for 30 minutes, and the phosphorylation of the substrate peptide was measured by detecting the luciferase signal (integration time 0.5~1 sec) using a SpectraMax ID5 reader (Molecular Devices LLC., San Jose, CA, USA).

FLT3 = biological target: T2, FLT3 (Homo sapiens, UniProt P36888); assay: ADP-Glo kinase assay FLT3 WT; type: biochemical; settings: recombinant FLT3, 120 minutes at room temperature, read-out: Enzyme (IC50) FLT3 WT
T2 construct: Recombinant proteins containing FLT3 and FLT3(D835Y) domains were purchased from Promega; purchased Promega V4064
T2 sequence (P36888 610-943 limits assumed): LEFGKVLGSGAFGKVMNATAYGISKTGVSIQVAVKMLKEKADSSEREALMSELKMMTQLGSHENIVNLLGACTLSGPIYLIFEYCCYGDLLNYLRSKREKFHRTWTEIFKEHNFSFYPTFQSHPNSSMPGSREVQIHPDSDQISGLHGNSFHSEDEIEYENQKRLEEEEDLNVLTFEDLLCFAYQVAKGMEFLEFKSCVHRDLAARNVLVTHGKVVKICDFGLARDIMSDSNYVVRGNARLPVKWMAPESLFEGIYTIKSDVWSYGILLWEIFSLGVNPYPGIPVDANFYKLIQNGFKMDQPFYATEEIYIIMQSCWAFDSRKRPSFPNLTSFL
Description: as §3, §4
Recombinant proteins containing FLT3 and FLT3(D835Y) domains were purchased from Promega (cat #V4064, cat #V4514), respectively. According to the manufacturer's instructions, the optimal enzyme, ATP, and substrate concentrations were optimized using the ADP-Glo™ kinase assay method (Promega, USA). […] Thereafter, ADP-Glo™ reagent (5 μl) was added and reacted for an additional 40 minutes at room temperature. Finally, the detection reagent (kinase detection reagent, 10 μl) was added, followed by reaction at room temperature for 30 minutes, and the phosphorylation of the substrate peptide was measured by detecting the luciferase signal (integration time 0.5~1 sec) using a SpectraMax ID5 reader (Molecular Devices LLC., San Jose, CA, USA).

[2] = system: BaF3-ITD-FLT3 D835Y cell line; assay: Cell proliferation inhibition, Alamar Blue; type: cell-based; settings: 72 hours of compound treatment, read-out: Cellular (GI50) BaF3-ITD-FLT3 D835Y
Description: as §1, §2

[3] = system: BaF3-ITD-FLT3 F691L cell line; assay: Cell proliferation inhibition, Alamar Blue; type: cell-based; settings: 72 hours of compound treatment, read-out: Cellular (GI50) BaF3-ITD-FLT3 F691L
Description: as §1, §2

Compound	GI50 [1] [nM]	IC50 (FLT3(D835Y)) [nM]	IC50 (FLT3) [nM]	GI50 [2] [nM]	GI50 [3] [nM]
NCCCNC(=O)c1ccc2[nH]nc(-c3nc4ccc(C(=O)N5CCOCC5)cc4[nH]3)c2c1 [Example 21, N-(3-aminopropyl)-3-(6-(morpholine-4-carbonyl)-1H-benzo[d]imidazol-2-yl)-1H-indazole-5-carboxamide]	100 to 1000	< 10	< 10	–	–
N[C@H]1CC[C@H](NC(=O)c2ccc3[nH]nc(-c4nc5ccc(N6CCCCC6)cc5[nH]4)c3c2)C1 [Example 31, N-((1S,3S)-3-aminocyclopentyl)-3-(6-(piperidin-1-yl)-1H-benzo[d]imidazol-2-yl)-1H-indazole-5-carboxamide]	< 10	–	< 10	< 10	10 to 100
O=C(NCC1CNC1)c1ccc2[nH]nc(-c3nc4ccc(-c5ccoc5)cc4[nH]3)c2c1 [Example 75, N-(azetidin-3-ylmethyl)-3-(6-(furan-3-yl)-1H-benzo[d]imidazol-2-yl)-1H-indazole-5-carboxamide]	10 to 100	–	–	< 10	10 to 100
